#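 Method: 48-hour compound exposure of cells in 96-well plates, five concentrations, linear interpolation of endpoints. At the TGI there is no net growth.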
# How the values were obtained:
# Assay in all cases: inhibition of tumour cell growth, NCI panel, 48 h
# 786-0 renal = test system: 786-0 renal
# A498 renal = test system: A498 renal
# A549 NSCLC = test system: A549 NSCLC
# ACHN renal = test system: ACHN renal
# BT-549 breast = test system: BT-549 breast
# CAKI-1 renal = test system: CAKI-1 renal
# CCRF-CEM leukemia = test system: CCRF-CEM leukemia
# COLO 205 colon = test system: COLO 205 colon
# DU-145 prostate = test system: DU-145 prostate
# EKVX NSCLC = test system: EKVX NSCLC
# HCC-2998 colon = test system: HCC-2998 colon
# HCT-116 colon = test system: HCT-116 colon
# HCT-15 colon = test system: HCT-15 colon
# HOP-62 NSCLC = test system: HOP-62 NSCLC
# HS 578T breast = test system: HS 578T breast
# HT29 colon = test system: HT29 colon
# IGROV1 ovarian = test system: IGROV1 ovarian
# K-562 leukemia = test system: K-562 leukemia
# KM12 colon = test system: KM12 colon
# LOX IMVI melanoma = test system: LOX IMVI melanoma
# M14 melanoma = test system: M14 melanoma
# MALME-3M melanoma = test system: MALME-3M melanoma
# MCF7 breast = test system: MCF7 breast
# MDA-MB-231 breast = test system: MDA-MB-231 breast
# MDA-MB-435 = test system: MDA-MB-435
# MDA-N = test system: MDA-N
# MOLT-4 leukemia = test system: MOLT-4 leukemia
# NCI-H226 lung = test system: NCI-H226 lung
# NCI-H460 lung = test system: NCI-H460 lung
# NCI-H522 lung = test system: NCI-H522 lung
# NCI/ADR-RES ovarian = test system: NCI/ADR-RES ovarian
# OVCAR-3 ovarian = test system: OVCAR-3 ovarian
# OVCAR-4 ovarian = test system: OVCAR-4 ovarian
# OVCAR-5 ovarian = test system: OVCAR-5 ovarian
# OVCAR-8 ovarian = test system: OVCAR-8 ovarian
# PC-3 prostate = test system: PC-3 prostate
# RPMI-8226 leukemia = test system: RPMI-8226 leukemia
# RXF 393 renal = test system: RXF 393 renal
# SF-268 CNS = test system: SF-268 CNS
# SF-295 CNS = test system: SF-295 CNS
# SK-MEL-2 melanoma = test system: SK-MEL-2 melanoma
# SK-MEL-28 melanoma = test system: SK-MEL-28 melanoma
# SK-MEL-5 melanoma = test system: SK-MEL-5 melanoma
# SK-OV-3 ovarian = test system: SK-OV-3 ovarian
# SN12C renal = test system: SN12C renal
# SNB-19 CNS = test system: SNB-19 CNS
# SNB-75 CNS = test system: SNB-75 CNS
# SR leukemia = test system: SR leukemia
# SW-620 colon = test system: SW-620 colon
# T-47D breast = test system: T-47D breast
# TK-10 renal = test system: TK-10 renal
# U251 CNS = test system: U251 CNS
# UACC-257 melanoma = test system: UACC-257 melanoma
# UACC-62 melanoma = test system: UACC-62 melanoma
# UO-31 renal = test system: UO-31 renal
# HL-60(TB) leukemia = test system: HL-60(TB) leukemia
# HOP-92 NSCLC = test system: HOP-92 NSCLC
# NCI-H23 lung = test system: NCI-H23 lung
# SF-539 CNS = test system: SF-539 CNS
compound,measurement,setting,value
O=C1c2sc(-c3ccc(F)cc3)cc2-n2cccc21,TGI,786-0 renal,32.2 µM
same,TGI,A498 renal,62.8 µM
same,TGI,A549 NSCLC,> 100 µM
same,TGI,ACHN renal,> 100 µM
same,TGI,BT-549 breast,> 100 µM
same,TGI,CAKI-1 renal,34.5 µM
same,TGI,CCRF-CEM leukemia,> 100 µM
same,TGI,COLO 205 colon,> 100 µM
same,TGI,DU-145 prostate,> 100 µM
same,TGI,EKVX NSCLC,> 100 µM
same,TGI,HCC-2998 colon,> 100 µM
same,TGI,HCT-116 colon,58.7 µM
same,TGI,HCT-15 colon,> 100 µM
same,TGI,HOP-62 NSCLC,37.3 µM
same,TGI,HS 578T breast,62.7 µM
same,TGI,HT29 colon,> 100 µM
same,TGI,IGROV1 ovarian,38.3 µM
same,TGI,K-562 leukemia,74.2 µM
same,TGI,KM12 colon,> 100 µM
same,TGI,LOX IMVI melanoma,> 100 µM
same,TGI,M14 melanoma,> 100 µM
same,TGI,MALME-3M melanoma,> 100 µM
same,TGI,MCF7 breast,> 100 µM
same,TGI,MDA-MB-231 breast,86.3 µM
same,TGI,MDA-MB-435,> 100 µM
same,TGI,MDA-N,> 100 µM
same,TGI,MOLT-4 leukemia,> 100 µM
same,TGI,NCI-H226 lung,82.2 µM
same,TGI,NCI-H460 lung,> 100 µM
same,TGI,NCI-H522 lung,> 100 µM
same,TGI,NCI/ADR-RES ovarian,> 100 µM
same,TGI,OVCAR-3 ovarian,> 100 µM
same,TGI,OVCAR-4 ovarian,> 100 µM
same,TGI,OVCAR-5 ovarian,> 100 µM
same,TGI,OVCAR-8 ovarian,> 100 µM
same,TGI,PC-3 prostate,> 100 µM
same,TGI,RPMI-8226 leukemia,> 100 µM
same,TGI,RXF 393 renal,73.1 µM
same,TGI,SF-268 CNS,52.1 µM
same,TGI,SF-295 CNS,93.9 µM
same,TGI,SK-MEL-2 melanoma,> 100 µM
same,TGI,SK-MEL-28 melanoma,> 100 µM
same,TGI,SK-MEL-5 melanoma,> 100 µM
same,TGI,SK-OV-3 ovarian,63 µM
same,TGI,SN12C renal,49.6 µM
same,TGI,SNB-19 CNS,39.6 µM
same,TGI,SNB-75 CNS,43.7 µM
same,TGI,SR leukemia,> 100 µM
same,TGI,SW-620 colon,> 100 µM
same,TGI,T-47D breast,> 100 µM
same,TGI,TK-10 renal,50.7 µM
same,TGI,U251 CNS,40.2 µM
same,TGI,UACC-257 melanoma,> 100 µM
same,TGI,UACC-62 melanoma,> 100 µM
same,TGI,UO-31 renal,> 100 µM
C[C@H]1CC[C@H]([C@@H](C)[C@H]2[C@@H](O)C[C@H]3[C@@H]4CC[C@H]5C[C@@H](O)CC[C@]5(C)[C@H]4CC[C@]23C)NC1,TGI,786-0 renal,37.1 µM
same,TGI,A498 renal,32.1 µM
same,TGI,A549 NSCLC,51 µM
same,TGI,ACHN renal,53.7 µM
same,TGI,BT-549 breast,32.5 µM
same,TGI,CAKI-1 renal,34.3 µM
same,TGI,CCRF-CEM leukemia,29 µM
same,TGI,COLO 205 colon,45.7 µM
same,TGI,DU-145 prostate,32 µM
same,TGI,EKVX NSCLC,32.5 µM
same,TGI,HCC-2998 colon,35.5 µM
same,TGI,HCT-116 colon,31.7 µM
same,TGI,HCT-15 colon,36.6 µM
same,TGI,HL-60(TB) leukemia,20.2 µM
same,TGI,HOP-62 NSCLC,58.1 µM
same,TGI,HOP-92 NSCLC,33.7 µM
same,TGI,HS 578T breast,57.7 µM
same,TGI,HT29 colon,34.2 µM
same,TGI,IGROV1 ovarian,35.4 µM
same,TGI,KM12 colon,30.2 µM
same,TGI,LOX IMVI melanoma,50.6 µM
same,TGI,M14 melanoma,59.2 µM
same,TGI,MALME-3M melanoma,33 µM
same,TGI,MCF7 breast,47.2 µM
same,TGI,MDA-MB-231 breast,47.9 µM
same,TGI,MDA-MB-435,32.3 µM
same,TGI,MDA-N,43.8 µM
same,TGI,MOLT-4 leukemia,27.4 µM
same,TGI,NCI-H226 lung,39.5 µM
same,TGI,NCI-H23 lung,32.5 µM
same,TGI,NCI-H460 lung,39.7 µM
same,TGI,NCI-H522 lung,30.8 µM
same,TGI,NCI/ADR-RES ovarian,32.6 µM
same,TGI,OVCAR-3 ovarian,39.8 µM
same,TGI,OVCAR-4 ovarian,34.1 µM
same,TGI,OVCAR-5 ovarian,49.4 µM
same,TGI,OVCAR-8 ovarian,32.2 µM
same,TGI,PC-3 prostate,31 µM
same,TGI,RPMI-8226 leukemia,30.7 µM
same,TGI,RXF 393 renal,47.7 µM
same,TGI,SF-268 CNS,67.1 µM
same,TGI,SF-295 CNS,39.2 µM
same,TGI,SF-539 CNS,53.7 µM
same,TGI,SK-MEL-2 melanoma,46 µM
same,TGI,SK-MEL-28 melanoma,36.1 µM
same,TGI,SK-MEL-5 melanoma,44 µM
same,TGI,SK-OV-3 ovarian,31.7 µM
same,TGI,SN12C renal,35.5 µM
same,TGI,SNB-19 CNS,50.2 µM
same,TGI,SR leukemia,24.7 µM
same,TGI,SW-620 colon,41.9 µM
same,TGI,T-47D breast,30.8 µM
same,TGI,TK-10 renal,38.1 µM
same,TGI,U251 CNS,31.9 µM
same,TGI,UACC-257 melanoma,35.7 µM
same,TGI,UACC-62 melanoma,28.5 µM
same,TGI,UO-31 renal,30.9 µM
